From patent US11976047B1, “4,5-bis(4-bromo-phenyl)-1-hexyl-2-(2- methoxyphenyl)-1H-imidazole as an antimicrobial compound” (KING FAISAL UNIVERSITY, priority 2023, dated 2024)

Columns and labels:
Type in all cases: cell-based
Settings in all cases: after 10, 20, 40 and 60 minutes at all dilutions 1:100, 1:200, 1:400, 1:800 (summary in words)
[1] = test system: Escherichia coli; experiment: Antimicrobial screening by agar dilution, Escherichia coli
Method: (§1) The antimicrobial properties of the 4,5-bis(4-bromo-phenyl)-1-hexyl-2-(2-methoxyphenyl)-1H-imidazole was studied by the method of agar dilution. Test solutions of each compound was prepared in concentration of 1% using dimethylformamide as a solvent then they are diluted in physiological solution to obtain the final experimental dilutions 1:100, 1:200, 1:400, 1:800. The effect of these substances are compared with furacillin in a controlled study. The testing microbes used were gram positive bacteria Staphylococcus aureus, gram negative bacteria Pseudomonas aeruginosa and Escherichia coli and Candida albicans fungi were taken. The experiments used for this survey were meat-pentonlu agar (EPA) for cultivation of bacteria and Saburo environment for fungi. Each experiment used 1 ml of test solution on each plate 500 min. Add 2 drops of emulsified with microbes feel. All experimental samples were taken from the agar after 10, 20, 40, 60 minutes in the environment on the basis of Patrk planted. Bacteria were cultivated at a temperature of 37° C. for 1 day and the mushroom was kept in a thermostat for 2 hours at a temperature of 28° C. in the. Then results were checked.

[2] = test system: Pseudomonas aeruginosa; experiment: Antimicrobial screening by agar dilution, Pseudomonas aeruginosa
Method: as §1

[3] = test system: Staphylococcus aureus; experiment: Antimicrobial screening by agar dilution, Staphylococcus aureus
Method: as §1

[4] = test system: Candida albicans; experiment: Antimicrobial (antifungal) screening by agar dilution, Candida albicans
Method: as §1

CCCCCCn1c(-c2ccccc2OC)nc(-c2ccc(Br)cc2)c1-c1ccc(Br)cc1 [4,5-bis(4-bromo-phenyl)-1-hexyl-2-(2-methoxyphenyl)-1H-imidazole]
highest inhibition activity: inhibition activity, Escherichia coli [1] | inhibition activity, Pseudomonas aeruginosa [2] | inhibition activity, Staphylococcus aureus [3] | inhibition activity, Candida albicans [4]
